Assay results reported in the kinase profiling compilation of Christmann-Franck et al. (2016).

Assays:
Test in all cases: KINOMEscan competition binding
Details in all cases: compound 10.0 µM
[1] = biological target: AXL (human) (UniProt P30530)
[2] = biological target: CAMK1G (human) (UniProt Q96NX5)
[3] = biological target: ABL2 (human) (UniProt P42684)
[4] = biological target: SRPK3 (human) (UniProt Q9UPE1)
[5] = biological target: JAK1 JH1 catalytic (human) (UniProt P23458)
[6] = biological target: TNNI3K (human) (UniProt Q59H18)
[7] = biological target: FGFR4 (human) (UniProt P22455)
[8] = biological target: MAP4K5 (human) (UniProt Q9Y4K4)
[9] = biological target: MAP3K12 (human) (UniProt Q12852)
[10] = biological target: MAP2K2 (human) (UniProt P36507)
[11] = biological target: YES1 (human) (UniProt P07947)
[12] = biological target: RPS6KA3 KD1 (human) (UniProt P51812)
[13] = biological target: CSNK1A1L (human) (UniProt Q8N752)
[14] = biological target: MST1R (human) (UniProt Q04912)
[15] = biological target: CDC2L2 (human) (UniProt Q9UQ88)
[16] = biological target: CDK9 (human) (UniProt P50750)
[17] = biological target: GSK3A (human) (UniProt P49840)
[18] = biological target: MAPK11 (human) (UniProt Q15759)
[19] = biological target: MAP3K4 (human) (UniProt Q9Y6R4)
[20] = biological target: LATS1 (human) (UniProt O95835)
[21] = biological target: PAK1 (human) (UniProt Q13153)
[22] = biological target: RPS6KA2 KD2 (human) (UniProt Q15349)
[23] = biological target: PIK3C2B (human) (UniProt O00750)
[24] = test system: FLT3 (human), P36888 [N841I]
[25] = biological target: ACVR1 (human) (UniProt Q04771)
[26] = biological target: EPHA5 (human) (UniProt P54756)
[27] = biological target: PRKACA (human) (UniProt P17612)
[28] = biological target: PRKX (human) (UniProt P51817)
[29] = biological target: TAOK1 (human) (UniProt Q7L7X3)
[30] = biological target: SIK2 (human) (UniProt Q9H0K1)
[31] = biological target: MAP3K3 (human) (UniProt Q99759)
[32] = biological target: NUAK1 (human) (UniProt O60285)
[33] = biological target: MAPK8 (human) (UniProt P45983)
[34] = biological target: TNIK (human) (UniProt Q9UKE5)
[35] = biological target: STK32B (human) (UniProt Q9NY57)
[36] = biological target: LYN (human) (UniProt P07948)
[37] = biological target: PIP4K2B (human) (UniProt P78356)
[38] = biological target: AAK1 (human) (UniProt Q2M2I8)
[39] = biological target: CSNK1G1 (human) (UniProt Q9HCP0)
[40] = biological target: RET (human) (UniProt P07949)

Sequence of TNIK (human) (Q9UKE5 whole entry, looked up): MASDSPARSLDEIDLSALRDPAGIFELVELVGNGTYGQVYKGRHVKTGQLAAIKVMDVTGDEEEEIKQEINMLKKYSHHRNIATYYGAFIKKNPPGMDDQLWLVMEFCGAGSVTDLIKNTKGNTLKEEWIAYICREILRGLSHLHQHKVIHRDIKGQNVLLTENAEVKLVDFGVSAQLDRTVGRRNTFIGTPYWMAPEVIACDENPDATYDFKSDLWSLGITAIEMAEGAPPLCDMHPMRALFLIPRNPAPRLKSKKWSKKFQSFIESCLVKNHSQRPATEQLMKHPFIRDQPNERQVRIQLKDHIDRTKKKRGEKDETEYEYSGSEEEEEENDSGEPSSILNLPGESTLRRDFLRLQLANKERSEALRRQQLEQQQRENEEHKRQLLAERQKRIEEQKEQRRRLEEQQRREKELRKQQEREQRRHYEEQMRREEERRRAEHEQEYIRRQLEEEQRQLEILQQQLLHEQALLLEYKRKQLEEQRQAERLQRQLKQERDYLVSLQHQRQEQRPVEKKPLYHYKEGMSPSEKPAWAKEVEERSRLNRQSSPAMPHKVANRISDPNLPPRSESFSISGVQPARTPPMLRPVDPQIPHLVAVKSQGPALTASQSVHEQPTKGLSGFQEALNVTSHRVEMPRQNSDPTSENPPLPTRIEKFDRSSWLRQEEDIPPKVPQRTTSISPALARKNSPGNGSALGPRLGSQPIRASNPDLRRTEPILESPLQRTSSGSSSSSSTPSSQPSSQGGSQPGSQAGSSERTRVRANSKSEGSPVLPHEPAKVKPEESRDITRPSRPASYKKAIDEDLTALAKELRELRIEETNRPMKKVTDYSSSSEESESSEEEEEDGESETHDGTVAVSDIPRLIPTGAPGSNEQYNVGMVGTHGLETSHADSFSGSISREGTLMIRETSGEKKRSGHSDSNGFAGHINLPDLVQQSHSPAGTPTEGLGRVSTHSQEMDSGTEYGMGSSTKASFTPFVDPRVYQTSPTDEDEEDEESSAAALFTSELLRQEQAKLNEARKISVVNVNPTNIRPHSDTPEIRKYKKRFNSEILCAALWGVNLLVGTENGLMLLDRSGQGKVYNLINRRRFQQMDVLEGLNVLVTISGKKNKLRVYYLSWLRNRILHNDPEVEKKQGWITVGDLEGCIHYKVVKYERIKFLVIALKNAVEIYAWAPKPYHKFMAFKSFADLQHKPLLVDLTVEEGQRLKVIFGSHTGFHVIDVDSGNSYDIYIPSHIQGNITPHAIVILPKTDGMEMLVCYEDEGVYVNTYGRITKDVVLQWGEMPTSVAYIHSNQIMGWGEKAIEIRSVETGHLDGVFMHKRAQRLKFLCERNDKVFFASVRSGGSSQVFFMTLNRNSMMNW
Sequence of CAMK1G (human) (Q96NX5 whole entry, looked up): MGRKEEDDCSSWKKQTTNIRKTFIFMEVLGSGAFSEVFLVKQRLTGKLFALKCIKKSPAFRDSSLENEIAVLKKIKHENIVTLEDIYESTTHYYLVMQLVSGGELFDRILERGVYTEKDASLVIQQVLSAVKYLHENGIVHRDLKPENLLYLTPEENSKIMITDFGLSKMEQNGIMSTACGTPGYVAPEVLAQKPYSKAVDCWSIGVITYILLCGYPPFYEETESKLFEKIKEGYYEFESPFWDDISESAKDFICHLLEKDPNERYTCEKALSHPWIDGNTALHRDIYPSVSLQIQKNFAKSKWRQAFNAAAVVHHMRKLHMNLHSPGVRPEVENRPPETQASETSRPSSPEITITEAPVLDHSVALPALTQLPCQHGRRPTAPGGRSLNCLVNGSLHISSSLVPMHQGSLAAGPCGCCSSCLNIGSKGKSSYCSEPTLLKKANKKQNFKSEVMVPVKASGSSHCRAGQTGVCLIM
Sequence of MAP2K2 (human) (P36507 whole entry, looked up): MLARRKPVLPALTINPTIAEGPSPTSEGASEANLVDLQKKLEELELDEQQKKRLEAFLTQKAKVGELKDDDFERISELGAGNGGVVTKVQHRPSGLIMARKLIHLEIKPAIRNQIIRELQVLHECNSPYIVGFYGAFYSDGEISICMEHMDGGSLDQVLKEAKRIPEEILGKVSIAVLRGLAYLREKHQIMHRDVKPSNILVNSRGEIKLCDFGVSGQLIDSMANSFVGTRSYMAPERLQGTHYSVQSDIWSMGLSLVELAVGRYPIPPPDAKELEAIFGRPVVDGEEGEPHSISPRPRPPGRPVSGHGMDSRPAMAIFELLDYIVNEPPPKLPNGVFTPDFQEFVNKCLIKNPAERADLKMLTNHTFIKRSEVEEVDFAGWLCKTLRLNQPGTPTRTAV
Sequence of AXL (human) (P30530 whole entry, looked up): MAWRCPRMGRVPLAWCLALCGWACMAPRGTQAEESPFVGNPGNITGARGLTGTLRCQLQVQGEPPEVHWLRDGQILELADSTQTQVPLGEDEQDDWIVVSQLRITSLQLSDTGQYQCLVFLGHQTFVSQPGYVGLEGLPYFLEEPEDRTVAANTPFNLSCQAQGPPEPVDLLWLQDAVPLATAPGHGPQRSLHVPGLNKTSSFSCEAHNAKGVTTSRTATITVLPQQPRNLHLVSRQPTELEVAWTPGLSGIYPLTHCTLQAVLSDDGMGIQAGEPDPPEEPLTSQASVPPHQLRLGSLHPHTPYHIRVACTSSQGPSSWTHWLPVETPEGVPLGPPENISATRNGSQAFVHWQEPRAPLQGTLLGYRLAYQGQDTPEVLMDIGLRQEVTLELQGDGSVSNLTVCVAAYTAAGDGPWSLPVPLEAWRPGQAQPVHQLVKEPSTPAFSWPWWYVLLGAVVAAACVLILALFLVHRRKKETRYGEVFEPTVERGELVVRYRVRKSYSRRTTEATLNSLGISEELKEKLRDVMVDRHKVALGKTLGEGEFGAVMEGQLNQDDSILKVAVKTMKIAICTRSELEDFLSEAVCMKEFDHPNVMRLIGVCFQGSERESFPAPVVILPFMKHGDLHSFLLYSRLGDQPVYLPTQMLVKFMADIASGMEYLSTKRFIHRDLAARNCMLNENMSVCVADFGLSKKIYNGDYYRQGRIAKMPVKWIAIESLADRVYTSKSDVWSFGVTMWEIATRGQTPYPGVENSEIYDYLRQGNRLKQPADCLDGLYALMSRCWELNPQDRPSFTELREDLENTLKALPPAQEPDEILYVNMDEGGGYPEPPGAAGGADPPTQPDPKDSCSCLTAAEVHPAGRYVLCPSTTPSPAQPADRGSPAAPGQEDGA
Sequence of PIK3C2B (human) (O00750 whole entry, looked up): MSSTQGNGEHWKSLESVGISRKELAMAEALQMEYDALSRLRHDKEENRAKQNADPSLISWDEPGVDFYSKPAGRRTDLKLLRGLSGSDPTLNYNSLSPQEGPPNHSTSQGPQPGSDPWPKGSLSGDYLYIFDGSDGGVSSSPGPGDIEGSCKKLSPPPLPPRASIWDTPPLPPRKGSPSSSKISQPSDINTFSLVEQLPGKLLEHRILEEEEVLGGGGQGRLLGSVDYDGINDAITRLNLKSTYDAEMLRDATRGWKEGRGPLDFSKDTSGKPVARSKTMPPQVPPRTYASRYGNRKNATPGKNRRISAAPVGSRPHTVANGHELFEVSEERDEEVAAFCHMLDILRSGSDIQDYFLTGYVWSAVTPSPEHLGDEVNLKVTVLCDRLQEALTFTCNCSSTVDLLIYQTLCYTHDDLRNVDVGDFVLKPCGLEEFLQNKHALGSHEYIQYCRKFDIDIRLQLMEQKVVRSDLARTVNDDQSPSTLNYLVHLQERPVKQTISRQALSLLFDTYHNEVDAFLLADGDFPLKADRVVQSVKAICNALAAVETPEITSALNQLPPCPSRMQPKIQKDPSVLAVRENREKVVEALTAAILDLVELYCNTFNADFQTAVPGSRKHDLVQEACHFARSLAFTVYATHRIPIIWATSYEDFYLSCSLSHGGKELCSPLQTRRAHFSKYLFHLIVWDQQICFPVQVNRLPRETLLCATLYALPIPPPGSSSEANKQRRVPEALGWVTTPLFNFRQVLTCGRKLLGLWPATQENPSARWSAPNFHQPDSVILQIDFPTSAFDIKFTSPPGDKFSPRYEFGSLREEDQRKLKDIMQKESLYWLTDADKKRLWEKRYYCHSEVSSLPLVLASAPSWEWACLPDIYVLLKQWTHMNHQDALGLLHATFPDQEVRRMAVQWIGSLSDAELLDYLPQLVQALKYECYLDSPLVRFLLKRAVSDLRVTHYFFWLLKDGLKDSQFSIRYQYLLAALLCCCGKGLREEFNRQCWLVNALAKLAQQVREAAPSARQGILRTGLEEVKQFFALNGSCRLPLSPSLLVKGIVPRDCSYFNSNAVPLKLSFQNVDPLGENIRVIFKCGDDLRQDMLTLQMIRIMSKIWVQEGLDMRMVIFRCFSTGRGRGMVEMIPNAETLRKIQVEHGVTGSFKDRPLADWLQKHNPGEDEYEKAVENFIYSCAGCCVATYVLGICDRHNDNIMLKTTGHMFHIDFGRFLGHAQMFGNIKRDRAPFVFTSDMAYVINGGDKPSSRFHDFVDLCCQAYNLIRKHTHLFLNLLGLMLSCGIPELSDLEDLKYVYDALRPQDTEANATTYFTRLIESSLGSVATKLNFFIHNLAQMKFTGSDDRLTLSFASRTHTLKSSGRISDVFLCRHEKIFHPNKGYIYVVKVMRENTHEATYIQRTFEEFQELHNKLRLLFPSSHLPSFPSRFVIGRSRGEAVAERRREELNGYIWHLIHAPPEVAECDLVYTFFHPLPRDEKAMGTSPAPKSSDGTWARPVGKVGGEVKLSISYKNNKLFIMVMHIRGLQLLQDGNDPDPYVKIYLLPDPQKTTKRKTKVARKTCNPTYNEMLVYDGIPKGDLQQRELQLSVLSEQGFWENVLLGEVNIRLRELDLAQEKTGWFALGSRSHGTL
Sequence of CSNK1A1L (human) (Q8N752 whole entry, looked up): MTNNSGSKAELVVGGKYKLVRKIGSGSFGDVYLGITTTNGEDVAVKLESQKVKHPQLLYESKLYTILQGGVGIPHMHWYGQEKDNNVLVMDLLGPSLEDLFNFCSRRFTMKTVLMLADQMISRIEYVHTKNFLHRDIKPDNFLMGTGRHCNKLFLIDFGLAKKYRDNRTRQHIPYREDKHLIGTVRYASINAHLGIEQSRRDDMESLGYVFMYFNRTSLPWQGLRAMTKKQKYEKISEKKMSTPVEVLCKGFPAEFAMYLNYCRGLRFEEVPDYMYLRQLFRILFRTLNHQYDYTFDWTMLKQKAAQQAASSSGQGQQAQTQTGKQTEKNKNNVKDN

| Structure (SMILES) | kinase still bound, per cent of control [1] [%] | kinase still bound, per cent of control [2] [%] | kinase still bound, per cent of control [3] [%] | kinase still bound, per cent of control [4] [%] | kinase still bound, per cent of control [5] [%] | kinase still bound, per cent of control [6] [%] | kinase still bound, per cent of control [7] [%] | kinase still bound, per cent of control [8] [%] | kinase still bound, per cent of control [9] [%] | kinase still bound, per cent of control [10] [%] | kinase still bound, per cent of control [11] [%] | kinase still bound, per cent of control [12] [%] | kinase still bound, per cent of control [13] [%] | kinase still bound, per cent of control [14] [%] | kinase still bound, per cent of control [15] [%] | kinase still bound, per cent of control [17] [%] | kinase still bound, per cent of control [18] [%] | kinase still bound, per cent of control [19] [%] | kinase still bound, per cent of control [20] [%] | kinase still bound, per cent of control [21] [%] | other results |
| --- | --- | --- | --- | --- | --- | --- | --- | --- | --- | --- | --- | --- | --- | --- | --- | --- | --- | --- | --- | --- | --- |
| CCOc1cc2ncc(C#N)c(Nc3ccc(OCc4ccccn4)c(Cl)c3)c2cc1NC(=O)/C=C/CN(C)C | 5.4 | 100 | 92 | 77 | 83 | 100 | 100 | 0.85 | 36 | 0.5 | 26 | 89 | 98 | 100 | 100 | 97 | 100 | 4.8 | 90 | 16 | kinase still bound, per cent of control [16]: 94%; kinase still bound, per cent of control [22]: 100%; kinase still bound, per cent of control [23]: 100%; kinase still bound, per cent of control [24]: 64%; kinase still bound, per cent of control [25]: 100%; kinase still bound, per cent of control [26]: 100%; kinase still bound, per cent of control [27]: 95%; kinase still bound, per cent of control [28]: 100%; kinase still bound, per cent of control [29]: 83%; kinase still bound, per cent of control [30]: 58%; kinase still bound, per cent of control [31]: 3.8%; kinase still bound, per cent of control [32]: 61%; kinase still bound, per cent of control [33]: 16%; kinase still bound, per cent of control [34]: 6%; kinase still bound, per cent of control [35]: 73%; kinase still bound, per cent of control [36]: 34%; kinase still bound, per cent of control [37]: 95%; kinase still bound, per cent of control [38]: 68% |
| O=C(NOC[C@H](O)CO)c1ccc(F)c(F)c1Nc1ccc(I)cc1F | 83 | 100 | 90 | 100 | 78 | 51 | 54 | 69 | 78 | 0.2 | 73 | 100 | 80 | 78 | 100 | 90 | 100 | 100 | 100 | 100 | kinase still bound, per cent of control [39]: 61%; kinase still bound, per cent of control [16]: 76%; kinase still bound, per cent of control [22]: 92%; kinase still bound, per cent of control [23]: 100%; kinase still bound, per cent of control [24]: 78%; kinase still bound, per cent of control [25]: 76%; kinase still bound, per cent of control [26]: 96%; kinase still bound, per cent of control [27]: 72%; kinase still bound, per cent of control [28]: 100%; kinase still bound, per cent of control [29]: 100%; kinase still bound, per cent of control [30]: 92%; kinase still bound, per cent of control [31]: 98%; kinase still bound, per cent of control [32]: 81%; kinase still bound, per cent of control [33]: 92%; kinase still bound, per cent of control [40]: 90%; kinase still bound, per cent of control [34]: 100%; kinase still bound, per cent of control [36]: 72%; kinase still bound, per cent of control [37]: 100%; kinase still bound, per cent of control [38]: 100% |
| OCCCNc1cc(-c2ccnc(Nc3cccc(Cl)c3)n2)ccn1 | 100 | 100 | 100 | 100 | 100 | 100 | 100 | 100 | 100 | 100 | 100 | 100 | 100 | 100 | 100 | 20 | 100 | 100 | 100 | 100 | kinase still bound, per cent of control [39]: 100%; kinase still bound, per cent of control [16]: 10%; kinase still bound, per cent of control [22]: 100%; kinase still bound, per cent of control [23]: 100%; kinase still bound, per cent of control [24]: 100%; kinase still bound, per cent of control [25]: 100%; kinase still bound, per cent of control [26]: 100%; kinase still bound, per cent of control [27]: 100%; kinase still bound, per cent of control [28]: 100%; kinase still bound, per cent of control [30]: 100%; kinase still bound, per cent of control [31]: 100%; kinase still bound, per cent of control [32]: 100%; kinase still bound, per cent of control [33]: 100%; kinase still bound, per cent of control [40]: 100%; kinase still bound, per cent of control [34]: 100%; kinase still bound, per cent of control [35]: 100%; kinase still bound, per cent of control [36]: 100%; kinase still bound, per cent of control [37]: 100%; kinase still bound, per cent of control [38]: 21% |
| O=C(O)c1ccc(Nc2ncc3c(n2)-c2ccc(Cl)cc2C(c2c(F)cccc2F)=NC3)cc1 | 4.4 | 79 | 30 | 100 | 90 | 85 | 58 | 96 | 100 | 99 | 3.9 | 28 | 97 | 92 | 100 | 100 | 99 | 36 | 98 | 80 | kinase still bound, per cent of control [39]: 37%; kinase still bound, per cent of control [22]: 64%; kinase still bound, per cent of control [23]: 93%; kinase still bound, per cent of control [25]: 100%; kinase still bound, per cent of control [26]: 1.5%; kinase still bound, per cent of control [27]: 47%; kinase still bound, per cent of control [28]: 75%; kinase still bound, per cent of control [29]: 71%; kinase still bound, per cent of control [30]: 49%; kinase still bound, per cent of control [31]: 72%; kinase still bound, per cent of control [32]: 67%; kinase still bound, per cent of control [33]: 100%; kinase still bound, per cent of control [40]: 59%; kinase still bound, per cent of control [34]: 61%; kinase still bound, per cent of control [35]: 38%; kinase still bound, per cent of control [36]: 25%; kinase still bound, per cent of control [37]: 100%; kinase still bound, per cent of control [38]: 90% |
